Test results: patent publication EP4603105A1, “PHARMACEUTICAL COMPOSITION CONTAINING CYCLIC COMPOUND HAVING SELECTIVE KRAS INHIBITORY EFFECT AGAINST HRAS AND NRAS” (CHUGAI SEIYAKU KABUSHIKI KAISHA, priority 2022, dated 2024)
Where a SMILES comes first, the peptide text is derived from it. Bridges are numbered along the chain shown (N, C = ends). [ ]: non-standard residue; d: D form. The star is where a group is joined. hPhe(3-Cl-4-CF3) = N[C@@H](CCc1ccc(C(F)(F)F)c(Cl)c1)C(=O)O; NPrPhe(4-CF3) = CCCN[C@@H](Cc1ccc(C(F)(F)F)cc1)C(=O)O; NMeGly(cPent) = CN[C@H](C(=O)O)C1CCCC1; Pro(4S-Me) = C[C@@H]1CN[C@H](C(=O)O)C1; NMeD = CN[C@@H](CC(=O)O)C(=O)O; NMeL = CN[C@@H](CC(C)C)C(=O)O; Morpholide = C1CN(*)CCO1; Ac5c = NC1(C(=O)O)CCCC1; Aze = O=C(O)[C@@H]1CCN1; Sar = CNCC(=O)O

Legend:
[1] = target: GDP-bound NRAS wild-type protein (Homo sapiens, UniProt P01111); experiment: Binding to NRAS by surface plasmon resonance (SPR), KD and KD ratio to KRAS
Sequence of GDP-bound NRAS wild-type protein (P01111 whole entry): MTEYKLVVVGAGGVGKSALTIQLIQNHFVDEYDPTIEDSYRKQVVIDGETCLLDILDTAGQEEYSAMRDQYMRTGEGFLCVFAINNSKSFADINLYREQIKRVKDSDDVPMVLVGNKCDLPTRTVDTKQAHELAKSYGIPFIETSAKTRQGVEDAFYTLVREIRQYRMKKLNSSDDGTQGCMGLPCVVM
Summary of the method: (§1)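 Each cycle, GDP-bound biotin-Avi RAS was captured (~100–300 RU), compound concentrations were injected low to high for 75 s each at 100 µL/min, then the chip was regenerated. Buffer: HBS pH 7.4, 10 mM MgCl2, 10 µM GDP, 1 mM DTT, 4% DMSO; 30°C. KD from a 1:1 binding model.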

HRAS wild-type protein = HRAS wild-type protein (Homo sapiens, UniProt P01112); experiment: Binding to HRAS by surface plasmon resonance (SPR), KD and KD ratio to KRAS
Sequence of HRAS wild-type protein (P01112 whole entry): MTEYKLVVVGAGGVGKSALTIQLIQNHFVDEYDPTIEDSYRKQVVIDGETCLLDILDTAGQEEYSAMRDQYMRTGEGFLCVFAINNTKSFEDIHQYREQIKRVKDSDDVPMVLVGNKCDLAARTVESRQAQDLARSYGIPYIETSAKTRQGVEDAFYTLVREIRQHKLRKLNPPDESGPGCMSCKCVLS
Summary of the method: as §1

[2] = target: GDP-bound KRAS wild-type protein (Homo sapiens, UniProt P01116); experiment: Binding to KRAS by surface plasmon resonance (SPR), dissociation constant KD
Sequence of GDP-bound KRAS wild-type protein (P01116 1-188 isoform P01116-2): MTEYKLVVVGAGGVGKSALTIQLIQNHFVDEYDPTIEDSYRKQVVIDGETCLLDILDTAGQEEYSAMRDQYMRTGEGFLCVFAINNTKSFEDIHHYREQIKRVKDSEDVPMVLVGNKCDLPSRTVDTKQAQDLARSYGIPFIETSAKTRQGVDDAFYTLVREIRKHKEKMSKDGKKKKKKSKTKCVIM
Summary of the method: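 Running buffer contained 10 µM GDP and 10 mM MgCl2 to keep RAS in the GDP state, with 4% DMSO at pH 7.4. Compounds were flowed at 100 µL/min in 75 s steps of rising concentration over captured biotin-Avi RAS at 30°C. Sensorgrams were fitted 1:1 for KD.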

[3] = test system: human lung cancer strain NCI-H441; type: cell-based
Summary of the method: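 Signal came from […] measured per well once the reagent was added. Beforehand, cells were cultured at 37°C and 5% carbon dioxide on a compound series serially diluted in dimethyl sulfoxide.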

[4] = ratio of the KD value with respect to GDP-bound NRAS wild-type protein to the KD value with respect to KRAS
[5] = ratio of the KD value with respect to HRAS wild-type protein to the KD value with respect to KRAS
[6] = Single Cycle Kinetics, 1:1 binding model
[7] = ratio of KD for GDP-bound NRAS wild-type protein to KD for KRAS
[8] = ratio of KD for HRAS wild-type protein to KD for KRAS

Row | SMILES | Kd [2, 6] [nM] | IC50 [3] [nM] | Kd ([2]; Single Cycle Kinetics) [nM] | Kd ([2]; 1:1 binding model) [nM] | NRAS /KRAS [1, 4] | HRAS /KRAS (HRAS wild-type protein; [5]) | NRAS /KRAS [1, 7] | HRAS /KRAS (HRAS wild-type protein; [8])
1 | CCO[C@@H]1C[C@H]2C(=O)NC3(CC(C)(C)C3)C(=O)N(C)[C@@H](C3CCCC3)C(=O)N(C)[C@H](C(=O)N(C)C)CC(=O)N(C)[C@@H](CC(C)C)C(=O)N[C@@H]([C@@H](C)CC)C(=O)N(C3CC3)CC(=O)N(C)[C@H]3C/C=C\CCN(C3=O)[C@@H](Cc3ccc(C)cc3)C(=O)N(C)CC(=O)N[C@@H](CCc3cc(F)c(C(F)(F)F)c(F)c3)C(=O)N2C1 [PP2109] | 0.29 | 5.7 |  |  | A (a compound having 10 or more and less than 20 is denoted as A) | A (a compound having 10 or more and less than 20 is denoted as A) |  | 
2 | CCO[C@@H]1C[C@H]2C(=O)NC3(CCC3)C(=O)N(C)[C@@H](C3CCCC3)C(=O)N(C)[C@H](C(=O)N3CCOCC3)CC(=O)N(C)[C@@H](CC(C)C)C(=O)N[C@@H]([C@H](C)CC)C(=O)N(C)CC(=O)N(C)[C@H]3CCCCN(C3=O)[C@@H](Cc3ccc(C(F)(F)F)cc3)C(=O)N(C)CC(=O)N[C@@H](CCc3cc(F)c(C(F)(F)F)c(F)c3)C(=O)N2C1 [PP0806] |  | 16.9 | 0.19 |  |  |  | B (a compound having 3 or more and less than 10 is denoted as B) | B (a compound having 3 or more and less than 10 is denoted as B)
3 | CCC[C@H]1C(=O)N[C@@H](C2CCOCC2)C(=O)N(C)CC(=O)N(C)[C@H]2C/C=C\CCN(C2=O)[C@@H](Cc2ccc(C)cc2)C(=O)N(C)CC(=O)N[C@@H](CCc2ccc(C(F)(F)F)c(Cl)c2)C(=O)N2C[C@H](OCC)C[C@H]2C(=O)NC2(CC(C)(C)C2)C(=O)N(C)[C@@H](C2CCCC2)C(=O)N(C)[C@H](C(=O)N(C)C)CC(=O)N1C [PP3002] |  | 128 |  | 2.1 |  |  | A (a compound having 10 or more and less than 20 is denoted as A) | A (a compound having 10 or more and less than 20 is denoted as A)
4 | CCC[C@H]1C(=O)N[C@@H]([C@H](C)CC)C(=O)N(C)CC(=O)N(C)[C@H]2C/C=C\CCN(C2=O)[C@@H](Cc2ccc(C)cc2)C(=O)N(C)CC(=O)N[C@@H](CCc2ccc(C(F)(F)F)c(Cl)c2)C(=O)N2C[C@H](OCC)C[C@H]2C(=O)NC2(CC(C)(C)C2)C(=O)N(C)[C@@H](C2CCCC2)C(=O)N(C)[C@H](C(=O)N(C)C)CC(=O)N1C [PP2221] | 1.7 | 40.5 |  |  | A (a compound having 10 or more and less than 20 is denoted as A) | A (a compound having 10 or more and less than 20 is denoted as A) |  | 

Further compounds by falling IC50 [3], results first:

Row | Kd [2, 6] [nM] | IC50 [3] [nM] | Kd ([2]; Single Cycle Kinetics) [nM] | Kd ([2]; 1:1 binding model) [nM] | SMILES | NRAS /KRAS [1, 4] | HRAS /KRAS (HRAS wild-type protein; [5]) | NRAS /KRAS [1, 7] | HRAS /KRAS (HRAS wild-type protein; [8])
5 | 38 | 401 |  |  | CC[C@H](C)[C@@H]1NC(=O)[C@H](CC(C)C)N(C)C(=O)C[C@@H](C(=O)N2CCOCC2)N(C)C(=O)[C@H](C2CCCC2)N(C)C(=O)C2(CCCC2)NC(=O)[C@@H]2CCCN2C(=O)[C@H](CCc2cc(F)c(C(F)(F)F)c(F)c2)NC(=O)CN(C)C(=O)[C@H](Cc2ccc(C(F)(F)F)cc2)N2CCCC[C@@H](C2=O)N(C)C(=O)[C@H](CC)N(C)C1=O [PP0551] | C (A compound having a KD ratio of 0.1 or more and less than 3 is denoted as C) | B (a compound having 3 or more and less than 10 is denoted as B) |  | 
6 | 1.2 | 20.3 |  |  | CCCN1C(=O)CN(C)C(=O)[C@@H]2CCN2C(=O)[C@H]([C@@H](C)CC)NC(=O)[C@H](CC(C)C)N(C)C(=O)C[C@@H](C(=O)N2CCOCC2)N(C)C(=O)[C@H](C2CCCC2)N(C)C(=O)C2(CCCC2)NC(=O)[C@@H]2C[C@H](C)CN2C(=O)[C@H](CCc2ccc(C(F)(F)F)c(Cl)c2)NC(=O)CN(C)C(=O)[C@@H]1Cc1ccc(C(F)(F)F)cc1 [PP0453] ([NMeL]I[Aze][Sar][NPrPhe(4-CF3)][Sar][hPhe(3-Cl-4-CF3)][Pro(4S-Me)][Ac5c][NMeGly(cPent)][NMeD]-Morpholide; lactam N-11) | B (a compound having 3 or more and less than 10 is denoted as B) | C (A compound having a KD ratio of 0.1 or more and less than 3 is denoted as C) |  | 
